The values below come from patent publication US12528814B2, “Bifunctional degraders of interleukin-1 receptor-associated kinases and therapeutic use thereof” (NURIX THERAPEUTICS, INC., priority 2020, dated 2026).

pIC50: −log10 of the molar value. Read-outs that look alike come from different tables or passages of the source.

Test [1] has as its target T1, IRAK4 (Homo sapiens (Human), UniProt Q9NWZ3). In words: IRAK4 Biochemical HTRF Kinase Assay. To be noted: read-out: IRAK4 HTRF biochemical: IC50. The gist of the method:
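HTRF KinEASE STK S1 format measuring IRAK4 phosphorylation of biotinylated peptide; reaction solution of 5 μM STK-S1, 10 mM ATP, 10 mM MgCl2 added (stock, to 10 μl final), 90 min at ambient temperature, detection 60 min. IC50 from sixteen-point duplicate curves by non-linear regression.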
(In TR-FRET formats the signal depends on donor and acceptor labels being close together.)
Target sequence in this assay (Q9NWZ3 whole entry, species assumed): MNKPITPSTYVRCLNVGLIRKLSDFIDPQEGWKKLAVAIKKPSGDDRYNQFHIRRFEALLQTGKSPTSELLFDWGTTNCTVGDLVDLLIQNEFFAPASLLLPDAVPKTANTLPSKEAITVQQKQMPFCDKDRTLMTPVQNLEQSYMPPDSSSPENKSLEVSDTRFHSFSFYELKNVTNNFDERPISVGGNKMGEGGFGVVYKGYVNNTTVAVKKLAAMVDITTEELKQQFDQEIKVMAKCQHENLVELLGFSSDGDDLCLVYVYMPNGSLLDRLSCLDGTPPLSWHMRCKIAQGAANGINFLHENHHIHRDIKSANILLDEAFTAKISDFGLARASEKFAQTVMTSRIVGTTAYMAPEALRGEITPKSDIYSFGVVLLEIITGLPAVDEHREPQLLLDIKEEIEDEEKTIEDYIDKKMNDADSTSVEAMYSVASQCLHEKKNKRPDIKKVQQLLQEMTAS

Test [2] addresses T1, IRAK4. Briefly: IRAK4 Degradation HiBiT Assay. To be noted: HiBiT-tagged Jurkat cells, 4 hrs; for Dmax: Jurkat; for DC50: read-out: Cellular IRAK4 HiBiT: DC50.
Target sequence in this assay (Q9NWZ3 whole entry): as the sequence (Q9NWZ3 whole entry, species assumed) above
Where [3] appears, read: read-out: Cellular IRAK4 HiBiT: Dmax, Table 4.
Setting [4] is: read-out: Cellular IRAK4 HiBiT: Dmax, Table 5, multiple runs.

On to `CN[C@@H](C)C(=O)N[C@H](C(=O)N1C[C@@H](NC(=O)CCCCCCC(=O)N2CCN(c3nnc(-c4cnc(-c5ccc6cc(C#N)cnn56)cc4NC(C)C)s3)CC2)C[C@H]1C(=O)N[C@@H]1CCCc2ccccc21)C1CCCCC1` [Example 52, (2S,4S)-4-(8-(4-(5-(6-(3-cyanopyrrolo[1,2-b]pyridazin-7-yl)-4-(isopropylamino)pyridin-3-yl)-1,3,4-thiadiazol-2-yl)piperazin-1-yl)-8-oxooctanamido)-1-((S)-2-cyclohexyl-2-((S)-2-(methylamino)propanamido)acetyl)-N—((R)-1,2,3,4-tetrahydronaphthalen-1-yl)pyrrolidine-2-carboxamide], for which the pIC50 (as a rule, the negative decadic logarithm of the IC50, by convention in mol/L) was 8.72 in test [1] (Table 4) and 8.72 in test [1] (Table 5, multiple runs). Besides, the Dmax in test [2] (setting [3]) and in test [2] (setting [4]) was 70% each time. Also, the DC50 (in general, the concentration at which degradation of the target reaches its halfway point) in test [2] (Table 4) was determined as 422 nM; in test [2] (Table 5, multiple runs), 422 nM.
For `CN[C@@H](C)C(=O)N[C@H](C(=O)N1C[C@@H](NC(=O)CCCCCCCCCCC(=O)N2CCN(c3nnc(-c4cnc(-c5ccc6cc(C#N)cnn56)cc4NC(C)C)s3)CC2)C[C@H]1C(=O)N[C@@H]1CCCc2ccccc21)C1CCCCC1` [Example 53, (2S,4S)-4-(12-(4-(5-(6-(3-cyanopyrrolo[1,2-b]pyridazin-7-yl)-4-(isopropylamino)pyridin-3-yl)-1,3,4-thiadiazol-2-yl)piperazin-1-yl)-12-oxododecanamido)-1-((S)-2-cyclohexyl-2-((S)-2-(methylamino)propanamido)acetyl)-N—((R)-1,2,3,4-tetrahydronaphthalen-1-yl)pyrrolidine-2-carboxamide], the pIC50 was 8.24 in test [1] (Table 4) and 8.24 in test [1] (Table 5, multiple runs). For the same compound, the Dmax (as a rule, the greatest extent of degradation seen) in test [2] (setting [3]) came out at 48%; in test [2] (setting [4]), 82%. Also, the DC50 in test [2] (Table 4) was 993 nM; in test [2] (Table 5, multiple runs) it was 8750 nM.
As to `CN[C@@H](C)C(=O)N[C@H](C(=O)N1C[C@@H](NC(=O)CCOCCC(=O)N2CCN(c3nnc(-c4cnc(-c5ccc6cc(C#N)cnn56)cc4NC(C)C)s3)CC2)C[C@H]1C(=O)N[C@@H]1CCCc2ccccc21)C1CCCCC1` [Example 54, (2S,4S)-4-(3-(3-(4-(5-(6-(3-cyanopyrrolo[1,2-b]pyridazin-7-yl)-4-(isopropylamino)pyridin-3-yl)-1,3,4-thiadiazol-2-yl)piperazin-1-yl)-3-oxopropoxy)propanamido)-1-((S)-2-cyclohexyl-2-((S)-2-(methylamino)propanamido)acetyl)-N—((R)-1,2,3,4-tetrahydronaphthalen-1-yl)pyrrolidine-2-carboxamide], the pIC50 in test [1] (Table 4) was 9.22; in test [1] (Table 5, multiple runs) it was 9.22. The Dmax in test [2] (setting [3]) and in test [2] (setting [4]) was 48% in each case. The half-maximal degradation concentration (DC50) in test [2] (Table 4) turned out to be 816 nM; in test [2] (Table 5, multiple runs), 794 nM.
Consider `CN[C@@H](C)C(=O)N[C@H](C(=O)N1CCC[C@H]1c1nc(C(=O)c2cccc(OCCOCCOCCOCCC(=O)N3CCN(c4nnc(-c5cnc(-c6ccc7cc(C#N)cnn67)cc5NC(C)C)s4)CC3)c2)cs1)C1CCCCC1` [Example 55, (S)—N—((S)-2-((S)-2-(4-(3-(2-(2-(2-(3-(4-(5-(6-(3-cyanopyrrolo[1,2-b]pyridazin-7-yl)-4-(isopropylamino)pyridin-3-yl)-1,3,4-thiadiazol-2-yl)piperazin-1-yl)-3-oxopropoxy)ethoxy)ethoxy)ethoxy)benzoyl)thiazol-2-yl)pyrrolidin-1-yl)-1-cyclohexyl-2-oxoethyl)-2-(methylamino)propanamide], for which the pIC50 in test [1] (Table 4) is 8.18; in test [1] (Table 5, multiple runs) it was 8.18. In addition, the Dmax in test [2] (setting [3]) and in test [2] (setting [4]) was 45% throughout. Moreover, the DC50 in test [2] (Table 4) stood at 934 nM; in test [2] (Table 5, multiple runs), 937 nM.
With `CNc1cc(-c2ccc3cc(C#N)cnn23)ncc1-c1nnc([C@H]2CC[C@H](NC(=O)CCC(=O)N[C@H](C(=O)N3C[C@H](O)C[C@H]3C(=O)N[C@@H](C)c3ccc(-c4scnc4C)cc3)C(C)(C)C)CC2)s1` [Example 56, N1-((1r,4S)-4-(5-(6-(3-cyanopyrrolo[1,2-b]pyridazin-7-yl)-4-(methylamino)pyridin-3-yl)-1,3,4-thiadiazol-2-yl)cyclohexyl)-N4—((S)-1-((2S,4R)-4-hydroxy-2-(((S)-1-(4-(4-methylthiazol-5-yl)phenyl)ethyl)carbamoyl)pyrrolidin-1-yl)-3,3-dimethyl-1-oxobutan-2-yl)succinamide], the pIC50 was 8.55 in test [1] (Table 4) and 8.82 in test [1] (Table 5, multiple runs). For the same compound, the Dmax amounted to 115% in test [2] (setting [3]) and 117% in test [2] (setting [4]). For the same compound, the DC50 in test [2] (Table 4) was determined as 77.6 nM; in test [2] (Table 5, multiple runs) it was 52.9 nM.
`CNc1cc(-c2ccc3cc(C#N)cnn23)ncc1-c1nnc([C@H]2CC[C@H](NC(=O)CCCCC(=O)N[C@H](C(=O)N3C[C@H](O)C[C@H]3C(=O)N[C@@H](C)c3ccc(-c4scnc4C)cc3)C(C)(C)C)CC2)s1` [Example 57, N1-((1r,4S)-4-(5-(6-(3-cyanopyrrolo[1,2-b]pyridazin-7-yl)-4-(methylamino)pyridin-3-yl)-1,3,4-thiadiazol-2-yl)cyclohexyl)-N6—((S)-1-((2S,4R)-4-hydroxy-2-(((S)-1-(4-(4-methylthiazol-5-yl)phenyl)ethyl)carbamoyl)pyrrolidin-1-yl)-3,3-dimethyl-1-oxobutan-2-yl)adipamide]: the pIC50 was 8.54 in test [1] (Table 4) and 8.54 in test [1] (Table 5, multiple runs). For the same compound, the Dmax was 107% in test [2] (setting [3]) and 114% in test [2] (setting [4]). Besides, the DC50 worked out at 89.6 nM in test [2] (Table 4) and 81.4 nM in test [2] (Table 5, multiple runs).
Consider `CNc1cc(-c2ccc3cc(C#N)cnn23)ncc1-c1nnc([C@H]2CC[C@H](NC(=O)CCOCCOc3cc(-c4scnc4C)ccc3CNC(=O)[C@@H]3C[C@@H](O)CN3C(=O)[C@@H](NC(=O)C3(F)CC3)C(C)(C)C)CC2)s1` [Example 58, (2S,4R)—N-(2-(2-(3-(((1r,4r)-4-(5-(6-(3-cyanopyrrolo[1,2-b]pyridazin-7-yl)-4-(methylamino)pyridin-3-yl)-1,3,4-thiadiazol-2-yl)cyclohexyl)amino)-3-oxopropoxy)ethoxy)-4-(4-methylthiazol-5-yl)benzyl)-1-((S)-2-(1-fluorocyclopropane-1-carboxamido)-3,3-dimethylbutanoyl)-4-hydroxypyrrolidine-2-carboxamide], for which the pIC50 is 8.28 in test [1] (Table 4) and 8.28 in test [1] (Table 5, multiple runs). For the same compound, the Dmax in test [2] (setting [3]) amounted to 115%; in test [2] (setting [4]), 118%. Besides, the DC50 in test [2] (Table 4) stood at 72.8 nM; in test [2] (Table 5, multiple runs), 73.7 nM.
On to `CNc1cc(-c2ccc3cc(C#N)cnn23)ncc1-c1nnc([C@H]2CC[C@H](NC(=O)CCCC(=O)N[C@H](C(=O)N3C[C@H](O)C[C@H]3C(=O)NCc3ccc(-c4scnc4C)cc3)C(C)(C)C)CC2)s1` [Example 59, N1-((1r,4S)-4-(5-(6-(3-cyanopyrrolo[1,2-b]pyridazin-7-yl)-4-(methylamino)pyridin-3-yl)-1,3,4-thiadiazol-2-yl)cyclohexyl)-N5-((S)-1-((2S,4R)-4-hydroxy-2-((4-(4-methylthiazol-5-yl)benzyl)carbamoyl)pyrrolidin-1-yl)-3,3-dimethyl-1-oxobutan-2-yl)glutaramide], for which the pIC50 was 9.03 in test [1] (Table 4) and 9.05 in test [1] (Table 5, multiple runs). For the same compound, the Dmax was 89% in test [2] (setting [3]) and 101% in test [2] (setting [4]). Also, the DC50 in test [2] (Table 4) was 163 nM; in test [2] (Table 5, multiple runs), 160 nM.
`CNc1cc(-c2ccc3cc(C#N)cnn23)ncc1-c1nnc([C@H]2CC[C@H](NC(=O)CCCCCOc3cc(-c4scnc4C)ccc3CNC(=O)[C@@H]3C[C@@H](O)CN3C(=O)[C@@H](NC(=O)C3(F)CC3)C(C)(C)C)CC2)s1` [Example 60, (2S,4R)—N-(2-((6-(((1r,4r)-4-(5-(6-(3-cyanopyrrolo[1,2-b]pyridazin-7-yl)-4-(methylamino)pyridin-3-yl)-1,3,4-thiadiazol-2-yl)cyclohexyl)amino)-6-oxohexyl)oxy)-4-(4-methylthiazol-5-yl)benzyl)-1-((S)-2-(1-fluorocyclopropane-1-carboxamido)-3,3-dimethylbutanoyl)-4-hydroxypyrrolidine-2-carboxamide]: the pIC50 is 8.45 in test [1] (Table 4) and 8.46 in test [1] (Table 5, multiple runs). Besides, the figures for the Dmax in test [2] (setting [3]) and in test [2] (setting [4]) were 105% and 112%, respectively. Also, the DC50 amounted to 159 nM in test [2] (Table 4) and 111 nM in test [2] (Table 5, multiple runs).
`CNc1cc(-c2ccc3cc(C#N)cnn23)ncc1-c1nnc([C@H]2CC[C@H](NC(=O)CCOCCC(=O)N[C@H](C(=O)N3C[C@H](O)C[C@H]3C(=O)N[C@@H](C)c3ccc(-c4scnc4C)cc3)C(C)(C)C)CC2)s1` [Example 61, (2S,4R)-1-((S)-2-(3-(3-(((1r,4S)-4-(5-(6-(3-cyanopyrrolo[1,2-b]pyridazin-7-yl)-4-(methylamino)pyridin-3-yl)-1,3,4-thiadiazol-2-yl)cyclohexyl)amino)-3-oxopropoxy)propanamido)-3,3-dimethylbutanoyl)-4-hydroxy-N—((S)-1-(4-(4-methylthiazol-5-yl)phenyl)ethyl)pyrrolidine-2-carboxamide]: the pIC50 is 8.40 in test [1] (Table 4) and 8.40 in test [1] (Table 5, multiple runs). In addition, the Dmax was 117% in test [2] (setting [3]) and 121% in test [2] (setting [4]). Also, the DC50 was found to be 591 nM in test [2] (Table 4) and 399 nM in test [2] (Table 5, multiple runs).
